Counter-ions that a name gives are not always drawn.
Columns and labels:
[1] = molecular target: T1, human B1R receptor (hB1R) (Homo sapiens, UniProt P46663); assay: Functional investigation on the bradykinin 1 receptor (B1R), FLIPR Ca2+ assay, hB1R cells; assay type: cell-based; conditions: test substance 10 μM; CHO K1 cells transfected with human B1R gene; Fluo-4 Ca2+ signal; agonist Lys-Des-Arg9-bradykinin at EC80; % of maximum achievable inhibition; read-out: B1R antagonism, human [10 μM] % inhibition
T1 construct: expressed in transfected cells; host or cells: CHO K1 cells
T1 sequence (P46663 1-353): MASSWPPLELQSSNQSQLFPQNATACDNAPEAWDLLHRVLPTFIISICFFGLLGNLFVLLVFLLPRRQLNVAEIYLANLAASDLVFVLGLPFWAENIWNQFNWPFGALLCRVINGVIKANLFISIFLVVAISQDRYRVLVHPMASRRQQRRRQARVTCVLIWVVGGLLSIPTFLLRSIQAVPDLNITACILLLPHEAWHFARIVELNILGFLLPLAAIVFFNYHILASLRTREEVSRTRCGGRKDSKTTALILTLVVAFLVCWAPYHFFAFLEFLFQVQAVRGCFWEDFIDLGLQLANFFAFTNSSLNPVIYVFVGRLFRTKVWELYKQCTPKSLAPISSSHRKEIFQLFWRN
Procedure, shortened: (§1)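 CHO K1 cells stably expressing human or rat B1R, Fluo-4 loaded, read by FLIPR (λex 488, λem 540 nm). Test compound (10 μM) first gave % activation against Lys-Des-[MUT]-bradykinin ≥50 nM (hB1R) or Des-[MUT]-bradykinin 10 μM (rB1R). After 10–20 min, agonist at EC80 was added; % inhibition or IC50 from concentration series, n=2–3, N≥2.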

[2] = molecular target: T2, B1R receptor of the rat (rB1R) (Rattus norvegicus, UniProt P97583); assay: Functional investigation on the bradykinin 1 receptor (B1R), FLIPR Ca2+ assay, rB1R cells; assay type: cell-based; conditions: test substance 10 μM; CHO K1 cells transfected with rat B1R gene; Fluo-4 Ca2+ signal; agonist Des-Arg9-bradykinin at EC80; % of maximum achievable inhibition; read-out: B1R antagonism, rat [10 μM] % inhibition
T2 construct: expressed in transfected cells; host or cells: CHO K1 cells
T2 sequence (P97583 1-337): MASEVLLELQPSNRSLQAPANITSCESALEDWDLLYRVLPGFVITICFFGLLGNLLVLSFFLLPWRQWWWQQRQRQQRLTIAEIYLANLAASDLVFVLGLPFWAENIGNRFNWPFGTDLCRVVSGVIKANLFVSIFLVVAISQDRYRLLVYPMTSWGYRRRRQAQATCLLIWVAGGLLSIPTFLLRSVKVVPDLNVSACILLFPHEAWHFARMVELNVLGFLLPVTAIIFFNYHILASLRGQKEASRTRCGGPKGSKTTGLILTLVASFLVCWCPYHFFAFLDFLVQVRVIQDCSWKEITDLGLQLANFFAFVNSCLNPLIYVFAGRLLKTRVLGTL
Procedure, shortened: as §1

| Structure (SMILES) | inhibition at 10 µM [1] [%] | inhibition at 10 µM [2] [%] |
| --- | --- | --- |
| COc1cc(C)c(S(=O)(=O)N2CCCC(CCCS(=O)(=O)N3CCC(CCN4CCCC4)CC3)C2)c(C)c1C (stereo not shown) [Example 10, 1-(4-Methoxy-2,3,6-trimethylphenylsulfonyl)-3-(3-(4-(2-(pyrrolidin-1-yl)ethyl)piperidin-1-ylsulfonyl)propyl)piperidine hydrochloride] | 63 | 10 |
| Cc1cc(S(=O)(=O)N2CCC[C@H]2CCCS(=O)(=O)N2CCN(C3CCN(C)CC3)CC2)c(C)cc1Cl [Example 29, (S)-1-(3-(1-(4-Cloro-2,5-dimethylphenylsulfonyl)pyrrolidin-2-yl)propylsulfonyl)-4-(1-methylpiperidin-4-yl)piperazine] | 87 | 46 |
| Cc1cc(S(=O)(=O)N2CCCCC2CCS(=O)(=O)N2CCN(C3CCN(C)CC3)CC2)c(C)cc1Cl (stereo not shown) [Example 38, 1-(2-(1-(4-Chloro-2,5-dimethylphenylsulfonyl)piperidin-2-yl)ethylsulfonyl)-4-(1-methylpiperidin-4-yl)piperazine dihydrochloride] | 101 | 47 |
| COc1cc(C)c(S(=O)(=O)N2CCCC2CCCCS(=O)(=O)N2CCC(CCN3CCCC3)CC2)c(C)c1C (stereo not shown) [Example 8, 1-(4-(1-(4-Methoxy-2,3,6-trimethylphenylsulfonyl)pyrrolidin-2-yl)butylsulfonyl)-4-(2-(pyrrolidin-1-yl)ethyl)piperidine] | 59 | 46 |
| Cc1cc(C)c(S(=O)(=O)N2CCCC2CCCCS(=O)(=O)N2CCN(C3CCN(C)CC3)CC2)c(C)c1 (stereo not shown) [Example 42, 1-(4-(1-(Mesitylsulfonyl)pyrrolidin-2-yl)butylsulfonyl)-4-(1-methylpiperidin-4-yl)piperazine dihydrochloride] | 50 | 26 |
| Cc1cc(S(=O)(=O)N2CCC(CCS(=O)(=O)N3CCN(c4ccncc4)CC3)C2)c(C)cc1Cl (stereo not shown) [Example 23, 1-(2-(1-(4-Chloro-2,5-dimethylphenylsulfonyl)pyrrolidin-3-yl)ethylsulfonyl)-4-(pyridin-4-yl)piperazine] | 102 | 78 |
| COc1cc(C)c(S(=O)(=O)N2CCC(CCS(=O)(=O)N3CCC(CCN4CCCC4)CC3)C2)c(C)c1 (stereo not shown) [Example 25, 1-(2-(1-(4-Methoxy-2,6-dimethylphenylsulfonyl)pyrrolidin-3-yl)ethylsulfonyl)-4-(2-(pyrrolidin-1-yl)ethyl)piperidine hydrochloride] | 103 | 90 |
| CN1CCC(N2CCN(S(=O)(=O)CCC[C@@H]3CCCN3S(=O)(=O)CC(c3ccccc3)c3ccccc3)CC2)CC1 [Example 33, (S)-1-(3-(1-(2,2-Diphenylethylsulfonyl)pyrrolidin-2-yl)propylsulfonyl)-4-(1-methylpiperidin-4-yl)piperazine] | 98 | 36 |
| COc1cc(C)c(S(=O)(=O)N2CCC[C@H]2CCCS(=O)(=O)N2CC(N3[C@@H]4CC[C@H]3C[C@H](Oc3ccncc3)C4)C2)c(C)c1 [Example 80, (1R,3s,5S)-8-(1-(3-((S)-1-(4-Methoxy-2,6-ydimethylphenylsulfonyl)pyrrolidin-2-l)propylsulfonyl)azetidin-3-yl)-3-(pyridin-4-yloxy)-8-azabicyclo[3.2.1]octane] | 99 | 102 |
| O=S(=O)(CCC[C@@H]1CCCN1S(=O)(=O)c1cccc2ccccc12)N1[C@@H]2CC[C@H]1C[C@H](Oc1ccncc1)C2 [Example 58, (1R,3R,5S)-8-(3-((S)-1-(Naphthalen-1-ylsulfonyl)pyrrolidin-2-yl)propylsulfonyl)-3-(pyridin-4-yloxy)-8-azabicyclo[3.2.1]octane] | 56 | 94 |

Continued, values first:

| inhibition at 10 µM [1] [%] | inhibition at 10 µM [2] [%] | Structure (SMILES) |
| --- | --- | --- |
| 99 | 95 | COc1cc(C)c(S(=O)(=O)N2CCCCC2CCCS(=O)(=O)N2CCC3(CCN(c4ccncc4)CC3)CC2)c(C)c1 (stereo not shown) [Example 74, 3-(3-(1-(4-Methoxy-2,6-dimethylphenylsulfonyl)piperidin-2-yl)propylsulfonyl)-9-(pyridin-4-yl)-3,9-diazaspiro[5.5]undecane] |
| 71 | 87 | O=S(=O)(CCC[C@@H]1CCCN1S(=O)(=O)c1cccc(Cl)c1Cl)N1CCC(Oc2ccncc2)CC1 [Example 52, (S)-4-(1-(3-(1-(2,3-Dichlorophenylsulfonyl)pyrrolidin-2-yl)propylsulfonyl)piperidin-4-yloxy)pyridine] |
| 84 | 104 | Cc1cccc(Cl)c1S(=O)(=O)N1CCC[C@H]1CCCS(=O)(=O)N1CCC2(CCC(Oc3ccncc3)CC2)CC1 [Example 62, 3-(3-((S)-1-(2-Chloro-6-methylphenylsulfonyl)pyrrolidin-2-yl)propylsulfonyl)-9-(pyridin-4-yloxy)-3-azaspiro[5.5]undecane] |
| 96 | 100 | Cc1ccc(S(=O)(=O)N2CCC[C@H]2CCCS(=O)(=O)N2CCC3(CCN(c4ccncc4)CC3)CC2)c2ccccc12 [Example 75, 3-(3-((S)-1-(4-Methylnaphthalen-1-ylsulfonyl)pyrrolidin-2-yl)propylsulfonyl)-9-(pyridin-4-yl)-3,9-diazaspiro[5.5]undecane] |
